Laboratory results as given in article PMC5218480 (PLoS ONE, 2017).

Tested on: MV-4-11 cells
Experiment: Gene expression microarray analysis (Affymetrix PrimeView) and GSEA
Assay type: cell-based, human
Design: RFU PODN (11730768_x_at) / Fold change /veh PODN (11730768_x_at) / RFU LINC00158 (11744669_a_at) / Fold change /veh LINC00158 (11744669_a_at) / RFU DUSP10 (11751237_a_at) / Fold change /veh DUSP10 (11751237_a_at) / RFU ID3 (11757404_x_at) / Fold change /veh ID3 (11757404_x_at) / RFU PLEKHG5 (11737974_s_at) / Fold change /veh PLEKHG5 (11737974_s_at) / RFU LRRC4B (11730491_at) / Fold change /veh LRRC4B (11730491_at) / RFU GIMAP4 (11747438_a_at) / Fold change /veh GIMAP4 (11747438_a_at) / RFU KRT8 (11758183_x_at) / Fold change /veh KRT8 (11758183_x_at) / RFU CNN1 (11734310_a_at) / Fold change /veh CNN1 (11734310_a_at) / RFU VPS37D (11726825_at) / Fold change /veh VPS37D (11726825_at) / RFU C10orf10 (11716522_x_at) / Fold change /veh C10orf10 (11716522_x_at) / RFU KIR2DL2 /// KIR2DL4 /// KIR2DL5A /// KIR2DL5B /// KIR2DS1 /// KIR2DS2 /// KIR2DS3 /// KIR2DS4 /// KIR3DL3 /// KIR3DL3 /// KIR3DS1 (11738374_at) / Fold change /veh KIR2DL2 /// KIR2DL4 /// KIR2DL5A /// KIR2DL5B /// KIR2DS1 /// KIR2DS2 /// KIR2DS3 /// KIR2DS4 /// KIR3DL3 /// KIR3DL3 /// KIR3DS1 (11738374_at) / RFU C1QL1 (11718748_at) / Fold change /veh C1QL1 (11718748_at) / RFU TMPRSS4 (11747572_a_at) / Fold change /veh TMPRSS4 (11747572_a_at) / RFU HAMP (11756126_x_at) / Fold change /veh HAMP (11756126_x_at) / RFU RNFT2 (11725882_a_at) / Fold change /veh RNFT2 (11725882_a_at) / RFU NR4A2 (11747474_a_at) / Fold change /veh NR4A2 (11747474_a_at) / RFU ABCC12 (11746883_a_at) / Fold change /veh ABCC12 (11746883_a_at) / RFU TMEM136 (11760407_x_at) / Fold change /veh TMEM136 (11760407_x_at) / RFU CLDN22 /// WWC2 (11732394_at) / Fold change /veh CLDN22 /// WWC2 (11732394_at) / RFU HLA-DPB1 (11760878_x_at) / Fold change /veh HLA-DPB1 (11760878_x_at) / RFU SPINT1 (11716480_a_at) / Fold change /veh SPINT1 (11716480_a_at) / RFU GAP43 (11754022_s_at) / Fold change /veh GAP43 (11754022_s_at) / RFU A4GNT (11735810_at) / Fold change /veh A4GNT (11735810_at) / RFU PRB3 (11715151_x_at) / Fold change /veh PRB3 (11715151_x_at) / RFU TUBB4B (11761932_at) / Fold change /veh TUBB4B (11761932_at) / RFU CAPN14 (11732068_a_at) / Fold change /veh CAPN14 (11732068_a_at) / RFU TMCC2 (11721928_a_at) / Fold change /veh TMCC2 (11721928_a_at) / RFU IRGQ (11745062_a_at) / Fold change /veh IRGQ (11745062_a_at) / RFU FAM174B (11720279_a_at) / Fold change /veh FAM174B (11720279_a_at) / RFU TMPRSS4 (11748680_a_at) / Fold change /veh TMPRSS4 (11748680_a_at) / RFU FAM212B (11763350_a_at) / Fold change /veh FAM212B (11763350_a_at) / RFU PLEKHG5 (11743358_a_at) / Fold change /veh PLEKHG5 (11743358_a_at) / RFU ZSCAN30 (11745921_a_at) / Fold change /veh ZSCAN30 (11745921_a_at) / RFU CMKLR1 (11741424_a_at) / Fold change /veh CMKLR1 (11741424_a_at) / RFU LOC101060620 /// MAPK8IP1 (11723275_at) / Fold change /veh LOC101060620 /// MAPK8IP1 (11723275_at) / RFU SPTSSB (11747773_x_at) / Fold change /veh SPTSSB (11747773_x_at) / RFU PRSS12 (11739890_at) / Fold change /veh PRSS12 (11739890_at) / RFU BIN1 (11741810_x_at) / Fold change /veh BIN1 (11741810_x_at) / RFU WNT11 (11732464_a_at) / Fold change /veh WNT11 (11732464_a_at) / RFU C10orf10 (11716521_a_at) / Fold change /veh C10orf10 (11716521_a_at) / RFU C5orf56 (11738089_at) / Fold change /veh C5orf56 (11738089_at) / RFU CYB561 (11721691_x_at) / Fold change /veh CYB561 (11721691_x_at) / RFU ANKRD19P (11752326_a_at) / Fold change /veh ANKRD19P (11752326_a_at) / RFU OR2T12 /// OR2T33 /// OR2T8 (11738714_s_at) / Fold change /veh OR2T12 /// OR2T33 /// OR2T8 (11738714_s_at) / RFU VCAN (11748164_a_at) / Fold change /veh VCAN (11748164_a_at) / RFU JSRP1 (11732532_at) / Fold change /veh JSRP1 (11732532_at) / RFU KRTAP10-11 (11738290_x_at) / Fold change /veh KRTAP10-11 (11738290_x_at) / RFU MYO3A (11730013_a_at) / Fold change /veh MYO3A (11730013_a_at) / RFU EBF3 (11725865_a_at) / Fold change /veh EBF3 (11725865_a_at) / RFU CAMK2N1 (11719241_x_at) / Fold change /veh CAMK2N1 (11719241_x_at) / RFU C5orf56 (11738088_a_at) / Fold change /veh C5orf56 (11738088_a_at) / RFU OLFML3 (11715873_a_at) / Fold change /veh OLFML3 (11715873_a_at) / RFU LOC100653217 /// NTM (11731650_a_at) / Fold change /veh LOC100653217 /// NTM (11731650_a_at) / RFU MAPK11 (11762145_a_at) / Fold change /veh MAPK11 (11762145_a_at) / RFU FIZ1 (11724087_x_at) / Fold change /veh FIZ1 (11724087_x_at) / RFU OASL (11726364_x_at) / Fold change /veh OASL (11726364_x_at) / RFU SOX15 (11748057_x_at) / Fold change /veh SOX15 (11748057_x_at) / RFU CD79A (11719716_a_at) / Fold change /veh CD79A (11719716_a_at) / RFU HIST1H1D (11736915_at) / Fold change /veh HIST1H1D (11736915_at) / RFU CASKIN2 (11723855_a_at) / Fold change /veh CASKIN2 (11723855_a_at) / RFU LOC730098 (11760151_x_at) / Fold change /veh LOC730098 (11760151_x_at) / RFU OR4N2 (11742367_at) / Fold change /veh OR4N2 (11742367_at) / RFU PRRT2 (11749266_a_at) / Fold change /veh PRRT2 (11749266_a_at) / RFU SNX32 (11753110_a_at) / Fold change /veh SNX32 (11753110_a_at) / RFU CDHR5 (11726645_a_at) / Fold change /veh CDHR5 (11726645_a_at) / RFU RCAN1 (11760418_a_at) / Fold change /veh RCAN1 (11760418_a_at) / RFU FAM167A (11723789_a_at) / Fold change /veh FAM167A (11723789_a_at) / RFU FAM26E (11764081_at) / Fold change /veh FAM26E (11764081_at) / RFU ISYNA1 (11749810_s_at) / Fold change /veh ISYNA1 (11749810_s_at) / RFU ACY1 (11761880_at) / Fold change /veh ACY1 (11761880_at) / RFU 11764098_at / Fold change /veh 11764098_at / RFU SAMD14 (11745864_x_at) / Fold change /veh SAMD14 (11745864_x_at) / RFU NPB (11741838_a_at) / Fold change /veh NPB (11741838_a_at) / RFU TMPRSS6 (11731388_a_at) / Fold change /veh TMPRSS6 (11731388_a_at) / RFU KRTAP10-2 (11738614_at) / Fold change /veh KRTAP10-2 (11738614_at) / RFU ARHGAP8 /// PRR5-ARHGAP8 (11727945_x_at) / Fold change /veh ARHGAP8 /// PRR5-ARHGAP8 (11727945_x_at) / RFU KRTAP5-7 /// NADSYN1 (11734609_at) / Fold change /veh KRTAP5-7 /// NADSYN1 (11734609_at) / RFU RASL12 (11751679_a_at) / Fold change /veh RASL12 (11751679_a_at) / RFU CDKN2B (11736163_a_at) / Fold change /veh CDKN2B (11736163_a_at) / RFU PRF1 (11729649_at) / Fold change /veh PRF1 (11729649_at) / RFU, ZNF638 /// ZNF638-IT1 / Fold change vs veh, ZNF638 /// ZNF638-IT1 / RFU, PANK3 / Fold change vs veh, PANK3 / RFU, SH3YL1 / Fold change vs veh, SH3YL1 / RFU, ZEB2 / Fold change vs veh, ZEB2 / RFU, NRIP1 / Fold change vs veh, NRIP1 / RFU, PTTG1IP / Fold change vs veh, PTTG1IP / RFU, CAPN2 / Fold change vs veh, CAPN2 / RFU, MED14 / Fold change vs veh, MED14 / RFU, SNORA58 / Fold change vs veh, SNORA58 / RFU, C1orf63 / Fold change vs veh, C1orf63 / RFU, LRRFIP1 / Fold change vs veh, LRRFIP1 / RFU, NDUFAF7 / Fold change vs veh, NDUFAF7 / RFU, SLC12A2 / Fold change vs veh, SLC12A2 / RFU, IBTK / Fold change vs veh, IBTK / RFU, ESF1 / Fold change vs veh, ESF1 / Fold change vs veh, TMEM50B / RFU, TAOK1 / Fold change vs veh, TAOK1 / RFU, ACBD3 / Fold change vs veh, ACBD3 / RFU, TMA16 / Fold change vs veh, TMA16 / RFU, RWDD3 / Fold change vs veh, RWDD3 / RFU, BCAT1 / Fold change vs veh, BCAT1 / RFU, EDEM3 / Fold change vs veh, EDEM3 / RFU, TMEM33 / Fold change vs veh, TMEM33 / RFU, WDR75 / Fold change vs veh, WDR75 / RFU, AHCTF1 / Fold change vs veh, AHCTF1 / RFU, TFRC / Fold change vs veh, TFRC / RFU, ZDHHC17 / Fold change vs veh, ZDHHC17 / RFU, NOM1 / Fold change vs veh, NOM1 / RFU, ARL8B / Fold change vs veh, ARL8B / RFU, ZBTB11 / Fold change vs veh, ZBTB11 / RFU, TAMM41 / Fold change vs veh, TAMM41 / RFU, KIAA1704 /// LOC100996395 / Fold change vs veh, KIAA1704 /// LOC100996395 / RFU, ING1 / Fold change vs veh, ING1 / RFU, TRMT61B / Fold change vs veh, TRMT61B / RFU, FUBP3 / Fold change vs veh, FUBP3 / RFU, TP53 / Fold change vs veh, TP53 / RFU, TNKS2 / Fold change vs veh, TNKS2 / RFU, ZFP14 / Fold change vs veh, ZFP14 / RFU, ACTR2 / Fold change vs veh, ACTR2 / RFU, PPP3R1 / Fold change vs veh, PPP3R1 / RFU, PIK3R1 / Fold change vs veh, PIK3R1 / RFU, HNRNPA1 / Fold change vs veh, HNRNPA1 / RFU, RNF170 / Fold change vs veh, RNF170 / RFU, ZNF28 / Fold change vs veh, ZNF28 / RFU, RNGTT / Fold change vs veh, RNGTT / RFU, OGT / Fold change vs veh, OGT / RFU, BRD1 / Fold change vs veh, BRD1 / RFU, MARS / Fold change vs veh, MARS / RFU, ZNF655 / Fold change vs veh, ZNF655 / RFU, FAHD1 / Fold change vs veh, FAHD1 / RFU, BDP1 / Fold change vs veh, BDP1 / RFU, LRRCC1 / Fold change vs veh, LRRCC1 / RFU, ARID1A / Fold change vs veh, ARID1A / RFU, ZNF146 / Fold change vs veh, ZNF146 / RFU, ZNF330 / Fold change vs veh, ZNF330 / RFU, GPN3 / Fold change vs veh, GPN3 / RFU, C9orf123 / Fold change vs veh, C9orf123 / RFU, N4BP2L2 / Fold change vs veh, N4BP2L2 / RFU, ARFIP1 / Fold change vs veh, ARFIP1 / RFU, FAM179B / Fold change vs veh, FAM179B / RFU, BCL10 / Fold change vs veh, BCL10 / RFU, UHRF1BP1L / Fold change vs veh, UHRF1BP1L / RFU, BET1 / Fold change vs veh, BET1 / RFU, CNOT2 / Fold change vs veh, CNOT2 / RFU, ZNF268 / Fold change vs veh, ZNF268 / Fold change vs veh, ZNF507 / RFU, DGCR2 / Fold change vs veh, DGCR2 / RFU, WDSUB1 / Fold change vs veh, WDSUB1 / Fold change vs veh, HSP90B1 /// MIR3652 / RFU, ADSS / Fold change vs veh, ADSS / RFU, GK / Fold change vs veh, GK / RFU, ZNF148 / Fold change vs veh, ZNF148 / RFU, TAF9 / Fold change vs veh, TAF9 / RFU, SLC1A5 / Fold change vs veh, SLC1A5 / RFU, SLMO2 / Fold change vs veh, SLMO2 / RFU, ABCC4 / Fold change vs veh, ABCC4 / RFU, LOC101060439 /// RAP1B / Fold change vs veh, LOC101060439 /// RAP1B / RFU, RFX7 / Fold change vs veh, RFX7 / RFU, GTPBP10 / Fold change vs veh, GTPBP10 / RFU, CNEP1R1 / Fold change vs veh, CNEP1R1 / RFU, BIVM-ERCC5 /// ERCC5 / Fold change vs veh, BIVM-ERCC5 /// ERCC5 / RFU, ILF3 / Fold change vs veh, ILF3 / RFU 11762660_at / Fold change /veh 11762660_at / RFU VCAN (11757783_s_at) / Fold change /veh VCAN (11757783_s_at) / RFU DDX43 (11728927_at) / Fold change /veh DDX43 (11728927_at) / RFU KRT8 (11758188_x_at) / Fold change /veh KRT8 (11758188_x_at) / RFU NKD1 (11759106_at) / Fold change /veh NKD1 (11759106_at) / RFU SRD5A1 (11742802_a_at) / Fold change /veh SRD5A1 (11742802_a_at) / RFU TPSAB1 /// TPSB2 (11721975_s_at) / Fold change /veh TPSAB1 /// TPSB2 (11721975_s_at) / RFU GSTM3 (11746129_a_at) / Fold change /veh GSTM3 (11746129_a_at) / RFU IL23R (11737362_x_at) / Fold change /veh IL23R (11737362_x_at) / RFU TMEM51 (11727254_a_at) / Fold change /veh TMEM51 (11727254_a_at) / RFU PIWIL2 (11732686_x_at) / Fold change /veh PIWIL2 (11732686_x_at) / RFU ORM1 (11744905_x_at) / Fold change /veh ORM1 (11744905_x_at) / RFU CCDC152 (11743942_at) / Fold change /veh CCDC152 (11743942_at) / RFU ECM1 (11717891_a_at) / Fold change /veh ECM1 (11717891_a_at) / RFU IL23R (11748794_a_at) / Fold change /veh IL23R (11748794_a_at) / RFU TNFAIP8L3 (11732012_x_at) / Fold change /veh TNFAIP8L3 (11732012_x_at) / RFU MBOAT4 (11741988_at) / Fold change /veh MBOAT4 (11741988_at) / RFU 11764193_at / Fold change /veh 11764193_at / RFU TMEM53 (11763286_at) / Fold change /veh TMEM53 (11763286_at) / RFU MAGEB2 (11727129_at) / Fold change /veh MAGEB2 (11727129_at) / RFU TMEM200A (11744735_a_at) / Fold change /veh TMEM200A (11744735_a_at) / RFU CCDC152 (11751479_a_at) / Fold change /veh CCDC152 (11751479_a_at) / RFU FAM211A (11726209_a_at) / Fold change /veh FAM211A (11726209_a_at) / RFU RGS16 (11746705_a_at) / Fold change /veh RGS16 (11746705_a_at) / RFU VCAN (11755009_s_at) / Fold change /veh VCAN (11755009_s_at) / RFU RHOB (11743442_s_at) / Fold change /veh RHOB (11743442_s_at) / RFU RGS16 (11720943_a_at) / Fold change /veh RGS16 (11720943_a_at) / RFU RGS16 (11720944_at) / Fold change /veh RGS16 (11720944_at) / RFU, VPS4B / Fold change vs veh, VPS4B / RFU, CREB1 / Fold change vs veh, CREB1 / RFU, DNAJC13 / Fold change vs veh, DNAJC13 / RFU, GNAQ / Fold change vs veh, GNAQ / RFU, CDK5R1 / Fold change vs veh, CDK5R1 / RFU, ZRANB3 / Fold change vs veh, ZRANB3 / RFU, CUL4A / Fold change vs veh, CUL4A / RFU, CCNY / Fold change vs veh, CCNY / RFU, UFL1 / Fold change vs veh, UFL1 / RFU, COG3 / Fold change vs veh, COG3 / RFU, DIAPH2 / Fold change vs veh, DIAPH2 / RFU, SKA2 / Fold change vs veh, SKA2 / RFU, AFF3 / Fold change vs veh, AFF3 / RFU, LMF1 / Fold change vs veh, LMF1 / RFU, IPO11 / Fold change vs veh, IPO11 / RFU, DFFB / Fold change vs veh, DFFB / RFU, FOXP1 / Fold change vs veh, FOXP1 / RFU, CARD8 / Fold change vs veh, CARD8 / RFU, STRN3 / Fold change vs veh, STRN3 / RFU, ADK / Fold change vs veh, ADK / RFU, RASSF2 / Fold change vs veh, RASSF2 / RFU, WIPF1 / Fold change vs veh, WIPF1 / RFU, LARP1B / Fold change vs veh, LARP1B / RFU, RASA1 / Fold change vs veh, RASA1 / RFU, RB1 / Fold change vs veh, RB1 / RFU, PPFIA1 / Fold change vs veh, PPFIA1 / RFU, MAT2A / Fold change vs veh, MAT2A / RFU, CCT5 / Fold change vs veh, CCT5 / RFU, WDR92 / Fold change vs veh, WDR92 / RFU, CUX1 / Fold change vs veh, CUX1 / RFU, TTC7A / Fold change vs veh, TTC7A / RFU, TMEM135 / Fold change vs veh, TMEM135 / RFU, DEPTOR / Fold change vs veh, DEPTOR / RFU, CPM / Fold change vs veh, CPM / RFU, DNAJB6 / Fold change vs veh, DNAJB6 / RFU, CACNA2D3 / Fold change vs veh, CACNA2D3 / RFU, DTX4 / Fold change vs veh, DTX4 / RFU, TFCP2 / Fold change vs veh, TFCP2 / RFU, GMCL1 /// GMCL1P1 / Fold change vs veh, GMCL1 /// GMCL1P1 / RFU, AEBP2 / Fold change vs veh, AEBP2 / RFU, SNHG1 /// SNORD22 /// SNORD25 /// SNORD26 /// SNORD27 /// SNORD28 /// SNORD29 /// SNORD31 / Fold change vs veh, SNHG1 /// SNORD22 /// SNORD25 /// SNORD26 /// SNORD27 /// SNORD28 /// SNORD29 /// SNORD31 / Fold change (Aza/veh), C12orf56 (ProbeSet 11735607_a_at) / Fold change (ACY-1035/veh), C12orf56 (ProbeSet 11735607_a_at) / Fold change (Aza/veh), FGFR1OP (ProbeSet 11751329_s_at) / Fold change (ACY-1035/veh), FGFR1OP (ProbeSet 11751329_s_at) / Fold change (Aza/veh), VPS36 (ProbeSet 11739960_a_at) / Fold change (ACY-1035/veh), VPS36 (ProbeSet 11739960_a_at) / RFU SYPL1 (11715823_x_at) / Fold change /veh SYPL1 (11715823_x_at) / RFU IGFBP7 (11715501_s_at) / Fold change /veh IGFBP7 (11715501_s_at) / RFU REEP3 (11722064_at) / Fold change /veh REEP3 (11722064_at) / RFU IGLL1 (11728026_x_at) / Fold change /veh IGLL1 (11728026_x_at): dose or concentration left out as unconfirmed
Conditions: ProbeSet 11723944_a_at; LIST B

Nc1ccc(-c2cccs2)cc1NC(=O)c1ccc2c(c1)cc(C1CC1)n2CCN1CCOCC1 [ACY-1035]
RFU, PTTG1IP: 718.82 RFU
